Tested on: Murine primary dopaminergic neurons
Test: MPP+ toxicity in primary dopaminergic neurons (MTT, neurite analysis)
Type: cell-based, mouse
Method: Primary mesencephalic cell cultures were prepared using gestational day 13.5 embryos from C57BL/6J mice, as previously described. The mesencephalon was dissected from the embryos and dissociated in a medium containing 0.25% trypsin-EDTA and 0.05% DNase in PBS for 15 min at 37 °C. Tissue samples were mechanically dissociated by gentle pipetting using Pasteur pipettes. After centrifugation at 400 x g for 5 min, the cells were plated in Neurobasal-A medium (Thermo Fisher Scientific, Waltham, MA, USA) supplemented with 2% B27 supplement (Thermo Fisher Scientific), 1× Glutamax (Thermo Fisher Scientific), 5% fetal bovine serum (FBS), 0.36% D-glucose, and 1% Penicillin/Streptomycin (P/S) in poly-L-ornithine/laminin (Sigma-Aldrich)-coated plates. On day 4 in vitro (DIV), the plating medium was replaced, and the neurons were used on DIV 8 for subsequent experiments.
Following treatment with the aforementioned reagents, the cells were washed and treated with 3-(4,5-dimethylthiazol-2-yl)-2,5-diphenyl-tetrazolium bromide (MTT, Thermo Fisher Scientific). Briefly, the cells were seeded in a 96-well plate at a density of 5 × 10^3 cells/well. After 24 h, a neurotoxin 1-methyl-4-phenylpyridinium (MPP^+) (Sigma-Aldrich) was applied to induce toxicity in neuronal cells. Next, the cells were incubated with MTT for 4 h, and formazan crystals were solubilized using DMSO. Absorbance was measured using a multi-plate reader at a wavelength of 570 nm, and the viability of the cells was recorded as a percentage of the control.

[1] = HN pre-treatment 12 h, then MPP+ 100 μM 24 h, dose-dependent

humanin (MAPRGFSCLLLLTSEIDLPVKRRA; Humanin; UniProt Q8IVG9 1-24, looked up) [HN, mitochondria-derived peptide encoded by the mitochondrial genome, synthesized by Fmoc-based SPPS at GL Biochem]
neurite number (HN 1 μM versus DMSO): increased neurite number | neurite loss induced by MPP+ [1]: rescued the neurite loss and neuronal death | neuronal death induced by MPP+ (viability, MTT) [1]: rescued the neurite loss and neuronal death | average length of all sprouting neurites per neuron (HN-treated versus DMSO-treated neurons, slightly higher): not statistically significant

Source: article PMC10283052, “Intranasal delivery of mitochondrial protein humanin rescues cell death and promotes mitochondrial function in Parkinson's disease” (Theranostics, 2023)
